Laboratory results reported in US20200102349A1, “PEPTIDE REAGENTS AND METHODS FOR DETECTION AND TARGETING OF DYSPLASIA, EARLY CANCER AND CANCER” (THE REGENTS OF THE UNIVERSITY OF MICHIGAN, priority 2014, published 2020).
Where no end group is shown, it is not given here.

Key:
[1] = test system: tumor xenograft; conditions: systemic administration; cited from earlier work
[2] = test system: colonic dysplasia (flat lesions and polyps); test: In vivo NIR fluorescence endoscopy of colon in CPC;Apc mouse; conditions: for mean (±SD) log of the T/B ratio: topical 100 μM, 5 min incubation
Method: For the in vivo fluorescence images of mouse colon, the T/B ratios for flat dysplasia and polyps were log-transformed to improve normality. The fold-change between classification pairs was estimated using the anti-log of the difference in the log-transformed data. Differences in results between the experimental and control peptides were evaluated on t-test. *P<0.05 was considered significant. Similar methods were used to evaluate the ex vivo fluorescence images of human colonic specimens. The results were plotted on a receiver-operator characteristic (ROC) curve. Co-localization of peptide and antibody binding was evaluated on Pearson's correlation coefficient. All analyses were performed using custom Matlab software (MathWorks Inc).
Mouse imaging studies were performed with approval of the University of Michigan Committee on the Use and Care of Animals (UCUCA). The mice were housed in pathogen-free conditions and supplied water ad libitum under controlled conditions of humidity (50±10%), light (12/12 hour light/dark cycle) and temperature (25° C.). Anesthesia was induced and maintained via a nose cone with inhaled isoflurane mixed with oxygen at a concentration of 2-4% at a flow rate of ˜0.5 L/min. The colon was first rinsed with tap water to remove mucous and debris. White light illumination was used first to identify anatomic landmarks, including polyps, mucosal folds, colonic segment, and distance of endoscope tip from anus, to register images with histology. The Cy5.5-labeled peptides were delivered at a concentration of 100 μM in a volume of 1.5 mL through the 3 Fr instrument channel. After 5 min for incubation, the colon was rinsed 3× with a tap water to remove the unbound peptides. After imaging was completed, the mice were euthanized. The colon was resected, and divided along the longitudinal axis. Flat lesions and polyps were identified on fluorescence, excised perpendicular to the mucosal surface, and processed for histology (H&E). We collected images from mice (n=5) that ranged in age from 7 to 10 months.
Imaging was performed using a small animal endoscope (Karl Storz Veterinary Endoscopy).^39 A xenon light source provides white light illumination via a fluid light cable. A diode-pumped solid state laser (TechnicaLaser Inc) provides excitation at λex=671 nm. The laser beam is expanded to a diameter of 3 mm to fill the aperture of the light cable. The laser power at the tip of the endoscope is <2 mW. The white light images reflect off a dichroic mirror (Semrock Inc, # FF685-Di02-25×36, λc=685 nm), and are focused by an achromatic doublet (Edmund Optics Inc, #32-323). They pass through a neutral density filter (OD 1), and are detected by a color camera (Point Grey Research, # GX-FW-28S5C-C). The fluorescence images pass through the dichroic and a band pass filter (Semrock Inc, # FF01-716/40-25, λC=716 nm, Δλ=40 nm), and are focused on a monochrome camera (Point Grey Research, # GX-FW-28S5M-C). All videos (1932×1452 resolution) are recorded at 15 frames per sec via a firewire connection.
White light and fluorescence videos were exported in avi format with 24 (RGB) and 8 (grayscale) bit digital resolution for the color and fluorescence images, respectively. […] Individual frames were exported using custom Matlab software. On the fluorescence images, 3 regions of interest (ROI, 25×25 pixels) were picked at random within the dysplastic lesion and within adjacent areas of normal-appearing mucosa. The mean intensities within these ROI's on the fluorescence images were measured. The target to-background (T/B) ratio for each image was determined by ratioing the mean intensities of these two ROIs.

[3] = biological target: T1, EGFR (Homo sapiens, UniProt P00533); test: siRNA knockdown of EGFR in HT29 cells, confocal fluorescence microscopy; type: cell-based; parameters: endogenous in cells; host or cells: HT29 human colorectal adenocarcinoma cells (ATCC)
Method: (§1) HT29, SW480, and SW620 cells (˜10^3) were grown on cover slips to ˜80% confluence. The cells were washed 1× with PBS and incubated with 5 μM of QRH*-Cy5.5 and PEH*-Cy5.5 for 3 min at RT. The cells were then washed 3× in PBS, fixed with 4% paraformaldehyde (PFA) for 5 min, washed 1× with PBS, and then mounted on glass slides with ProLong Gold reagent containing DAPI (Invitrogen). Confocal fluorescence images were collected with FITC, Cy5.5, and DAPI filters (Leica Inverted SPSX Confocal Microscope System) using a 63× oil-immersion objective. Fluorescence intensities from 5 cells in 2 independent images were quantified using custom Matlab (Mathworks) software.
We used siRNA to knockdown expression of EGFR in HT29 cells. We used ON-TARGETplus human EGFR siRNA and ON-TARGETplus non-targeting pool (Thermo Scientific) per manufacturer's protocol. 5 μL of siRNA at 5 μM/L concentration was transfected into HT29 cells using DharmaFECT (Thermo Scientific). QRH*-Cy5.5 and PEH*-Cy5.5 were incubated with HT29 siEGFR and siCL cells. The cells were fixed with either 4% PFA or methanol. A 1:1000 dilution of primary monoclonal mouse anti-EGFR antibody (Thermo Scientific, # MS-396, clone 199.12, IgG2a isotype) was incubated overnight at 4° C. Afterwards, the cells were washed 3× with PBS, and further incubated with 1:500 dilution of AF488-labeled secondary goat anti-mouse IgG antibody (Life Technologies, # A-11029) for 1 hour at RT, washed 3×, and then mounted on glass slides with ProLong Gold reagent containing DAPI (Invitrogen). Confocal fluorescence images were collected with FITC, Cy5.5, and DAPI filters using a 63× oil-immersion objective.
We validated specific binding of QRH*-Cy5.5 to EGFR on siRNA knockdown in HT29 cells. On confocal microscopy, QRH*-Cy5.5 (red), FIG. 2A, and AF488-labeled anti-EGFR (green), FIG. 2B, bind strongly to the surface (arrows) of control HT29 cells (transfected with siCL, non-targeting siRNA), scale bars 30 μm. […] The results (mean±std) for QRH*-Cy5.5, anti-EGFR AF488, and PEH*-Cy5.5 to control cells (siCL) were 7.8±1.7, 3.1±1.0, and 1.6±0.3 AU, respectively, and to EGFR knockdown cells (siEGFR) were 2.5±0.8, 1.0±0.4, and 1.9±0.7 AU, respectively, *P<0.01 by paired t-test, FIG. 2G. Results are an average of 10 cells from 2 images performed independently. EGFR expression is shown on Western blot, FIG. 12H.

[4] = test system: SW620 cells; test: Peptide binding to colorectal cancer cells on confocal microscopy (SW620); type: cell-based, human; conditions: SW620, 5 μM, 3 min
Method: as §1
(§2) We assessed binding of QRH*-Cy5.5 to a panel of colorectal cancer cells that vary in EGFR expression level on confocal microscopy. We observed binding of QRH*-Cy5.5 to the surface (arrows) of HT29, SW480, and SW620 cells with decreasing strength, FIG. 3A-C, scale bars 30 μm. […] Results are an average of 10 cells from 2 independent images. EGFR expression is shown on Western blot, FIG. 3H.

[5] = test system: HT29 cells; test: Peptide binding to colorectal cancer cells on confocal microscopy (HT29); type: cell-based, human; conditions: HT29, 5 μM, 3 min
Method: as §1, §2

[6] = test system: SW480 cells; test: Peptide binding to colorectal cancer cells on confocal microscopy (SW480); type: cell-based, human; conditions: SW480, 5 μM, 3 min
Method: as §1, §2

[7] = test system: HT29 cells; test: Competition for peptide binding with unlabeled peptide; type: cell-based, human; conditions: unlabeled peptide 0-500 μM, then 5 μM QRH*-Cy5.5, 4° C.
Method: Specific binding of QRH*-Cy5.5 to HT29 cells was validated on competitive inhibition with unlabeled QRH* peptide. A total of −10^3 HT29 cells were grown to −70% confluence on cover slips in triplicate. Unlabeled QRH* and PEH* peptide at 0, 50, 100, 150, 250, and 500 μM were added and incubated with the cells for 30 min at 4° C. The cells were washed and incubated with 5 μM of QRH*-Cy5.5 for another 30 min at 4° C. The cells were washed and fixed with 4% PFA for 5 min. The cells were washed with PBS and mounted with ProLong Gold reagent containing DAPI (Invitrogen). Fluorescence images were collected at each concentration using a 63× objective (Zeiss Axioskop 2 plus microscope), and intensities from 5 cells in 2 independent images were quantified using custom Matlab (Mathworks) software.

[8] = test system: HT29 cells; test: Apparent dissociation constant on flow cytometry; type: binding, human; conditions: 4° C., 1 hour
Method: We measured the apparent dissociation constant of the peptide to HT29 cells as an assessment of binding affinity. QRH*-Cy5.5 was serially diluted in PBS at concentrations of 0, 10, 25, 50, 75, 100, 125, 150 and 200 nM. HT29 cells (˜10^5) were incubated with QRH*-Cy5.5 at 4° C. for 1 hour, washed with cold PBS, and the mean fluorescence intensities were measured on flow cytometry. The equilibrium dissociation constant kd=1/ka was calculated by performing a least squares fit of the data to the non-linear equation […]. I0 and Imax are the initial and maximum fluorescence intensities, corresponding to no peptide and at saturation, respectively, and [X] represents the concentration of the bound peptide [Thomas et al., Clin Exp Metastasis, 26:105-119 (2009)]. Origin 6.1 data analysis software (OriginLab Corp) was used to calculate kd.

[9] = test system: HT29 cells; test: Apparent association time constant on flow cytometry; type: binding, human
Method: We measured the apparent association time constant of the peptide to HT29 cells as an assessment of binding onset. HT29 cells were grown to […] confluence in 10 cm dishes, and detached with PBS-based cell dissociation buffer (Invitrogen). Cells (˜10^5) were incubated with 5 μM QRH*-Cy5.5 at 4° C. for various time intervals ranging from 0 to 20 min. The cells were centrifuged, washed with cold PBS, and fixed with 4% PFA. Flow cytometry analysis was performed as described above, and the median fluorescence intensity (y) was ratioed with that of HT29 cells without addition of peptide at different time points (t) using Flowjo software. The rate constant k was calculated by fitting the data to a first order kinetics model, y(t)=Imax[1−exp^(−kt)], where Imax=maximum value,^60 using Prism 5.0 software (GraphPad Inc).

[10] = test system: OE21 human esophageal SCC cells; test: Binding of FITC-labeled peptide to esophageal SCC cells on confocal microscopy; type: cell-based
Method: We have further validated specific binding of the FITC-labeled peptide to EGFR on co-localization with anti-EGFR antibody. A total of ˜7.5×10^3 OE21 cells were grown to ˜70% confluence on cover slips and fixed with methanol for 5 min at ˜20° C. The cells were incubated for 2 hours at RT with 1:500 dilution of primary anti-EGFR mAb (199.12, Neomarkers). The cells were incubated with 1:500 dilution of secondary Cy5.5-labeled antibody for 1 hour at RT, and mounted with ProLong Gold with DAPI (Invitrogen). On confocal microscopy, we observe specific binding of Cy5.5-labeled anti-EGFR antibody (red) to the membrane (arrow) of OE21 cells, FIG. 8A. We then added the FITC-labeled peptide to the OE21 cells. After 10 min for incubation at 37° C., co-localization of the peptide (green) with the antibody (red) to the membrane (arrow) of OE21 cells can be observed, FIG. 8B.

[11] = biological target: T1, EGFR; conditions: read-out: binding affinity; cited from earlier work

Substance: CMYIEALDKYAC
- time of peak accumulation / binding activity in tumor xenograft after injection [1]: 8 h

Substance: LARLLT
- time of peak accumulation / binding activity in tumor xenograft after injection [1]: ~80 h

Substance: PEH*-Cy5.5: scrambled sequence PEHKRRQ (SEQ ID NO: 19) for control, Cy5.5-labeled (also: Cy5.5 label, site not given here) [reference compound]
- mean (±SD) log of the T/B ratio ([2]; flat lesions (n=15)): 0.108±0.143
- mean (±SD) log of the T/B ratio ([2]; polyps (n=15)): 0.186±0.233
- NIR fluorescence signal from polyp and flat lesions in vivo ([2]; topical, distal colon, 5 min): minimal signal
- fluorescence intensity (mean±std) ([3]; EGFR knockdown HT29 cells (siEGFR)): 1.9±0.7 AU
- fluorescence intensity (mean±std) ([3]; control HT29 cells (siCL, non-targeting siRNA)): 1.6±0.3 AU
- fluorescence intensity of binding (mean±std) [4]: 0.8±0.3
- fluorescence intensity of binding (mean±std) [5]: 1.7±0.4
- fluorescence intensity of binding (mean±std) [6]: 1.2±0.3

Substance: PEH*: unlabeled PEH* (control) (PEHKRRQGGGSK) [reference compound]
- change of fluorescence intensity of QRH*-Cy5.5 binding on addition of unlabeled peptide [7]: no change

Substance: QRH*: unlabeled QRH* peptide (QRHKPREGGGSK)
- change of fluorescence intensity of QRH*-Cy5.5 binding on addition of unlabeled peptide [7]: decrease in a concentration dependent manner

Substance: QRHKPRE
- Kd [8]: 50 nM
- binding time scale (onset) [9]: < 2.5 min
- apparent association time constant k ([9]; 5 μM, 4° C., flow cytometry): 0.406 min⁻¹

Substance: SHR*-FITC: FITC labeled SHRNRPRNTQPS (SHR*) (SEQ ID NO: 21) peptide (also: FITC label, site not given here)
- binding on confocal fluorescence microscopy [10]: significantly increased fluorescence intensity
- co-localization with Cy5.5-labeled anti-EGFR antibody ([10]; 10 min, 37° C.): co-localization

Substance: YHWYGYTPQNVI
- Kd [11]: 22 nM
- time of peak accumulation / binding activity in tumor xenograft after injection [1]: 4 h
